Patent US12643912B2, “Macrocyclic compounds, a process for their preparation and pharmaceutical compositions containing them” (LES LABORATOIRES SERVIER, priority 2020, dated 2026)

tested on: Nrf2 (Keap1-NRF2 nuclear translocation); test: U2OS translocation assay (PathHunter U2OS Keap1-NRF2 Nuclear Translocation Cell Line); format: cell-based; conditions: Homo sapiens, U2OS, 3 h, read-out: CELLULAR U2OS EC50 (nM), U2OS Keap1-NRF2 nuclear translocation cells, 3 h incubation, luminescence, normalized between 1% DMSO and 10 μM andrographolide
Protocol: EXAMPLE 84: U2OS—TRANSLOCATION ASSAY
U2OS cell have been stably transduced using MMLV-derived retroviral vector, to overexpress Nrf2-Enzyme Donor fusion protein, and Acceptor Enzyme in the nucleus (PathHunter® U2OS Keap1-NRF2 Nuclear Translocation Cell Line, Ref.93-0821C3, DiscoverX).
PathHunter U2OS cells were grown in Minimum Essential Medium (MEM) (Ref.30-2003, ATCC), 10% FBS (Ref.P30-193306, PanBiotech), 500 μg/ml Geneticine, 250 μg/ml hygromycine, 0.25 μg/ml puromycine (10131-027, 10687-010 and Ref.A1113802 respectively, Life Technologies).
The night before experiment, cells were harvested using Tryple Xpress (Ref.126905, Bibco) for 5 min at 37° C., resuspended in Opti-MEM™ (Ref.31985-047, Gibco), 1% FBS (Ref.P30-193306, PanBiotech) and then plated into 384 wells plates (Ref.6007680, Perkin Elmer) at the density of 7 500 cells/well in 20 μl. Cell are stored over night at 37° C., 5% CO2 until used. Compounds in 100% DMSO (0.315 μl/well) were resuspended in 20 μl MEM, 1% FBS, 3.4% DMSO. Compounds and andrographolide (10 μM final concentration; Ref.365645-500MG, Aldrich)) as positive control, were dispensed on cell, 5 μl /well, and then incubated for 3 h at 37° C. and 5% CO2. After incubation, Path hunter reagents were dispensed on cells (12 μl /well, Ref.93-0001, DiscoverX) and incubated for 60 min at room temperature in the dark.
Then, luminescence signal was measured using multimodal reader (Pherastar, BMG Labtech). Data were normalized between 1% DMSO (basal signal) and 10 μM andrographolide (positive signal) and analyzed using Activity Base software.

Row | Compound | EC50 [nM]
1 | Cc1ccc2cc1CN1Cc3cc(ccc3OS1(=O)=O)CNC(=O)CCn1nnc3c(C)c(ccc31)C2CC(=O)O (racemic) [Example 69, [4,31-Dimethyl-19,27,27-trioxo-26-oxa-27λ^6-thia-1,14,15,16,20-pentaazahexacyclo[20.5.3.1^3,70.1^9,130.0^12,160.0^25,29]dotriaconta-3(32),4,6,9(31),10,12,14,22,24,29-decaen-8-yl]acetic acid] | > 3160
2 | Cc1ccc2cc1CN1Cc3cc(ccc3OS1(=O)=O)OCCCCn1nnc3c(C)c(cc(-c4ccccc4)c31)[C@@H]2CC(=O)O (single isomer, unassigned) [Example 49] | 1620

same assay, conditions: read-out: CELLULAR U2OS EC50; U2OS Keap1-NRF2 nuclear translocation cells, 3 h incubation, luminescence, normalized between 1% DMSO and 10 μM andrographolide

Row | Compound | EC50 [nM]
3 | COc1cc2cc(c1C)CN1Cc3cc(ccc3OS1(=O)=O)OCCCCn1nnc3c(C)c(ccc31)C2CC(=O)O (single isomer, unassigned) [Example 30a, [5-Methoxy-4,31-dimethyl-27,27-dioxo-21,26-dioxa-27λ^6-thia-1,14,15,16-tetraazahexacyclo[20.5.3.1^3,70.1^9,130.0^12,160.0^25,29]dotriaconta-3(32),4,6,9(31),10,12,14,22,24,29-decaen-8-yl]acetic acid] | 555
4 | COc1cc2cc(c1C)CN1Cc3cc(ccc3OS1(=O)=O)OCCCCn1nnc3c(C)c(ccc31)C2CC(=O)O (single isomer, unassigned) [Example 30b, [5-Methoxy-4,31-dimethyl-27,27-dioxo-21,26-dioxa-27λ^6-thia-1,14,15,16-tetraazahexacyclo[20.5.3.1^3,70.1^9,130.0^12,160.0^25,29]dotriaconta-3(32),4,6,9(31),10,12,14,22,24,29-decaen-8-yl]acetic acid] | 2360
5 | Cc1ccc2cc1CN1Cc3cc(ccc3OS1(=O)=O)OCC1CCN(CC1)CCn1nnc3c(C)c(ccc31)C2CC(=O)O (single isomer, unassigned) [Example 60a, [4,36-Dimethyl-30,30-dioxo-24,29-dioxa-30λ^6-thia-1,14,15,16,19-pentaazaheptacyclo[23.5.3.2^19,220.1^3,70.1^9,130.0^12,160.0^28,32]heptatriaconta-3(37),4,6,9(36),10,12,14,25,27,32-decaen-8-yl]acetic acid] | 265
6 | Cc1ccc2cc1CN1Cc3cc(ccc3OS1(=O)=O)OCC1CCN(CC1)CCn1nnc3c(C)c(ccc31)C2CC(=O)O (single isomer, unassigned) [Example 60b, [4,36-Dimethyl-30,30-dioxo-24,29-dioxa-30λ^6-thia-1,14,15,16,19-pentaazaheptacyclo[23.5.3.2^19,220.1^3,70.1^9,130.0^12,160.0^28,32]heptatriaconta-3(37),4,6,9(36),10,12,14,25,27,32-decaen-8-yl]acetic acid] | > 3160
7 | Cc1ccc2cc1CN1Cc3cc(ccc3OS1(=O)=O)OCc1ccccc1/C=C/n1nnc3c(C)c(ccc31)C2CC(=O)O (single isomer, unassigned) [Example 61a, [(17E)-4,36-dimethyl-32,32-dioxo-26,31-dioxa-32λ^6-thia-1,14,15,16-tetraazaheptacyclo[25.5.3.1^3,70.1^9,130.0^12,160.0^19,240.0^30,34]heptatriaconta-3(37),4,6,9(36),10,12,14,17,19,21,23,27,29,34-tetradecaen-8-yl]acetic acid] | 717
8 | Cc1ccc2cc1CN1Cc3cc(ccc3OS1(=O)=O)OCc1ccccc1/C=C/n1nnc3c(C)c(ccc31)C2CC(=O)O (single isomer, unassigned) [Example 61b, [(17E)-4,36-dimethyl-32,32-dioxo-26,31-dioxa-32λ^6-thia-1,14,15,16-tetraazaheptacyclo[25.5.3.1^3,70.1^9,130.0^12,160.0^19,240.0^30,34]heptatriaconta-3(37),4,6,9(36),10,12,14,17,19,21,23,27,29,34-tetradecaen-8-yl]acetic acid] | > 3160
9 | Cc1ccc2cc1CN1Cc3cc(ccc3OS1(=O)=O)OCc1ccccc1SCCCn1nnc3c(C)c(ccc31)C2CC(=O)O (single isomer, unassigned) [Example 67a, [4,38-Dimethyl-34,34-dioxo-28,33-dioxa-20,34λ^6-dithia-1,14,15,16-tetraazaheptacyclo[27.5.3.1^3,70.1^9,130.0^12,160.0^21,260.0^32,36]nonatriaconta-3(39),4,6,9(38),10,12,14,21,23,25,29,31,36-tridecaen-8-yl]acetic acid] | 554
10 | Cc1ccc2cc1CN1Cc3cc(ccc3OS1(=O)=O)OCc1ccccc1SCCCn1nnc3c(C)c(ccc31)C2CC(=O)O (single isomer, unassigned) [Example 67b, [4,38-Dimethyl-34,34-dioxo-28,33-dioxa-20,34λ^6-dithia-1,14,15,16-tetraazaheptacyclo[27.5.3.1^3,70.1^9,130.0^12,160.0^21,260.0^32,36]nonatriaconta-3(39),4,6,9(38),10,12,14,21,23,25,29,31,36-tridecaen-8-yl]acetic acid] | > 3160
11 | Cc1ccc2cc1CN1Cc3cc(ccc3OS1(=O)=O)Oc1ccccc1NCCn1nnc3c(C)c(ccc31)C2CC(=O)O (single isomer, unassigned) [Example 70a, [4,36-Dimethyl-32,32-dioxo-26,31-dioxa-32λ^6-thia-1,14,15,16,19-pentaazaheptacyclo[25.5.3.1^3,70.1^9,130.0^12,160.0^20,250.0^30,34]heptatriaconta-3(37),4,6,9(36),10,12,14,20,22,24,27,29,34-tridecaen-8-yl]acetic acid] | 306
12 | Cc1ccc2cc1CN1Cc3cc(ccc3OS1(=O)=O)Oc1ccccc1NCCn1nnc3c(C)c(ccc31)C2CC(=O)O (single isomer, unassigned) [Example 70b, [4,36-Dimethyl-32,32-dioxo-26,31-dioxa-32λ^6-thia-1,14,15,16,19-pentaazaheptacyclo[25.5.3.1^3,70.1^9,130.0^12,160.0^20,250.0^30,34]heptatriaconta-3(37),4,6,9(36),10,12,14,20,22,24,27,29,34-tridecaen-8-yl]acetic acid] | > 3160
13 | Cc1ccc2cc1CN1Cc3cc(ccc3OS1(=O)=O)OCCCCn1nnc3c(C)c(ccc31)C2C(C)(C)C(=O)O (single isomer, unassigned) [Example 74a, 2-[4,31-Dimethyl-27,27-dioxo-21,26-dioxa-27λ^6-thia-1,14,15,16-tetraazahexacyclo[20.5.3.1^3,70.1^9,130.0^12,160.0^25,29]dotriaconta-3(32),4,6,9(31),10,12,14,22,24,29-decaen-8-yl]-2-methylpropanoic acid] | 6.11
14 | Cc1ccc2cc1CN1Cc3cc(ccc3OS1(=O)=O)OCCCCn1nnc3c(C)c(ccc31)C2C(C)(C)C(=O)O (single isomer, unassigned) [Example 74b, 2-[4,31-Dimethyl-27,27-dioxo-21,26-dioxa-27λ^6-thia-1,14,15,16-tetraazahexacyclo[20.5.3.1^3,70.1^9,130.0^12,160.0^25,29]dotriaconta-3(32),4,6,9(31),10,12,14,22,24,29-decaen-8-yl]-2-methylpropanoic acid] | 756
15 | Cc1ccc2cc1CN1Cc3c(ccc(c3Cl)OCCOCCn3nnc4c(C)c(ccc43)C2CC(=O)O)OS1(=O)=O (single isomer, unassigned) [Example 76a, [31-Chloro-4,32-dimethyl-28,28-dioxo-19,22,27-trioxa-28λ^6-thia-1,14,15,16-tetraazahexacyclo[21.5.3.1^3,70.1^9,130.0^12,160.0^26,30]tritriaconta-3(33),4,6,9(32),10,12,14,23,25,30-decaen-8-yl]acetic acid] | 7.5
16 | Cc1ccc2cc1CN1Cc3c(ccc(c3Cl)OCCOCCn3nnc4c(C)c(ccc43)C2CC(=O)O)OS1(=O)=O (single isomer, unassigned) [Example 76b, [31-Chloro-4,32-dimethyl-28,28-dioxo-19,22,27-trioxa-28λ^6-thia-1,14,15,16-tetraazahexacyclo[21.5.3.1^3,70.1^9,130.0^12,160.0^26,30]tritriaconta-3(33),4,6,9(32),10,12,14,23,25,30-decaen-8-yl]acetic acid] | 26.2
17 | Cc1ccc2cc1CN1Cc3cc(ccc3OS1(=O)=O)OCCOCCn1nnc3c(C)c(ccc31)C2CC(=O)O (single isomer, unassigned) [Example 78a, [4,32-Dimethyl-28,28-dioxo-19,22,27-trioxa-28λ^6-thia-1,14,15,16-tetraazahexacyclo[21.5.3.1^3,70.1^9,130.0^12,160.0^26,30]tritriaconta-3(33),4,6,9(32),10,12,14,23,25,30-decaen-8-yl]acetic acid] | 69
